Test results as given in PubChem BioAssay AID1963863 (Molecular Pharmacology Branch, DTP, NCI, 2024).

Tested on: 931267-113-T-J1-PDC KRAS spheroid with HUVEC/MSC, viability
Experiment: Anticancer human tumor 931267-113-T-J1-PDC patient-derived colon adenocarcinoma cell line growth inhibition [KRAS2]
Conditions: for IC50: curve of first compound; for viability, T/C: stronger effect = lower value
Summary of the method: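 KRAS-mutant tumor cells were grown as spheroids with HUVEC endothelial cells and human MSCs as stroma. Targeted agents were tested alone and with KRAS pathway inhibitors. Doses started at or near clinical Cmax, or 10 microM, descending half-log.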

[1] = second compound 0.1 µM, first compound 0.0316 µM
[2] = second compound 0.1 µM, first compound 0.1 µM
[3] = second compound 0.316 µM, first compound 0.0316 µM
[4] = second compound 0.316 µM, first compound 0.1 µM
[5] = second compound 1 µM, first compound 0.0316 µM
[6] = second compound 1 µM, first compound 0.1 µM
[7] = second compound 3.16 µM, first compound 0.0316 µM
[8] = second compound 3.16 µM, first compound 0.1 µM
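Further: compound exposure lasted 7 days before the readout.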
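Wherever viability, T/C is given: 100% = DMSO vehicle control viability.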

## CC(C)n1nc(-c2ccc3oc(N)nc3c2)c2c(N)ncnc21 + CNCc1ccccc1-c1csc(C(C)Nc2nc(C)nc3cc(OC)c(OC)cc23)c1
Second compound 0.1 µM
  IC50: 6.18 nM
Second compound 0.316 µM
  IC50: 4.24 nM
Second compound 1 µM
  IC50: 1.01 nM
Second compound 3.16 µM
  IC50: < 0.316 nM
Second compound 10 µM
  IC50: < 0.316 nM
Second compound 0.1 µM, first compound 0.000316 µM
  viability, T/C: 87.3%
Second compound 0.1 µM, first compound 0.001 µM
  viability, T/C: 87.7%
Second compound 0.1 µM, first compound 0.00316 µM
  viability, T/C: 68.4%
Second compound 0.1 µM, first compound 0.01 µM
  viability, T/C: 37.2%
[1]
  viability, T/C: 24.2%
[2]
  viability, T/C: 27.2%
Second compound 0.316 µM, first compound 0.000316 µM
  viability, T/C: 85.6%
Second compound 0.316 µM, first compound 0.001 µM
  viability, T/C: 67.8%
Second compound 0.316 µM, first compound 0.00316 µM
  viability, T/C: 55.5%
Second compound 0.316 µM, first compound 0.01 µM
  viability, T/C: 38.7%
[3]
  viability, T/C: 27.7%
[4]
  viability, T/C: 19.8%
Second compound 1 µM, first compound 0.000316 µM
  viability, T/C: 51.3%
Second compound 1 µM, first compound 0.001 µM
  viability, T/C: 57.2%
Second compound 1 µM, first compound 0.00316 µM
  viability, T/C: 33.2%
Second compound 1 µM, first compound 0.01 µM
  viability, T/C: 24.1%
[5]
  viability, T/C: 12.7%
[6]
  viability, T/C: 5.59%
Second compound 3.16 µM, first compound 0.000316 µM
  viability, T/C: 0.15%
Second compound 3.16 µM, first compound 0.001 µM
  viability, T/C: 0.12%
Second compound 3.16 µM, first compound 0.00316 µM
  viability, T/C: 0.09%
Second compound 3.16 µM, first compound 0.01 µM
  viability, T/C: 0.08%
[7]
  viability, T/C: 0.07%
[8]
  viability, T/C: 0.21%
Second compound 10 µM, first compound 0.000316 µM
  viability, T/C: 0.19%
Second compound 10 µM, first compound 0.001 µM
  viability, T/C: 0.81%
Second compound 10 µM, first compound 0.00316 µM
  viability, T/C: 0.23%
Second compound 10 µM, first compound 0.01 µM
  viability, T/C: 0.29%
Second compound 10 µM, first compound 0.0316 µM
  viability, T/C: 0.33%
Second compound 10 µM, first compound 0.1 µM
  viability, T/C: 0.4%

## CC(C)n1nc(-c2ccc3oc(N)nc3c2)c2c(N)ncnc21
Compound 0.000316 µM
  viability, T/C: 90.9% [middle of 5 runs]
Compound 0.001 µM
  viability, T/C: 92.8% [middle of 5 runs]
Compound 0.00316 µM
  viability, T/C: 66.5% [middle of 5 runs]
Compound 0.0316 µM
  viability, T/C: 26.9% [middle of 5 runs]
Compound 0.1 µM
  viability, T/C: 23.9% [middle of 5 runs]

## COC(=O)c1ccc2c(C(=Nc3ccc(N(C)C(=O)CN4CCN(C)CC4)cc3)c3ccccc3)c(O)[nH]c2c1 + C=CC(=O)N1CCN(c2nc(OCC3CCCN3C)nc3c2CCN(c2cccc4cccc(C)c24)C3)CC1CC#N
Second compound 0.0316 µM
  IC50: 683 nM
Second compound 0.1 µM
  IC50: 1170 nM
Second compound 0.316 µM
  IC50: 647 nM
Second compound 1 µM
  IC50: 120 nM
Second compound 3.16 µM
  IC50: < 31.6 nM
Second compound 0.0316 µM, first compound 0.0316 µM
  viability, T/C: 90.5%
Second compound 0.0316 µM, first compound 0.1 µM
  viability, T/C: 87.1%
Second compound 0.0316 µM, first compound 0.316 µM
  viability, T/C: 61.1%
Second compound 0.0316 µM, first compound 1 µM
  viability, T/C: 50.7%
Second compound 0.0316 µM, first compound 3.16 µM
  viability, T/C: 0.59%
Second compound 0.0316 µM, first compound 10 µM
  viability, T/C: 0.32%
[1]
  viability, T/C: 73.9%
[2]
  viability, T/C: 76.4%
Second compound 0.1 µM, first compound 0.316 µM
  viability, T/C: 64.5%
Second compound 0.1 µM, first compound 1 µM
  viability, T/C: 57.8%
Second compound 0.1 µM, first compound 3.16 µM
  viability, T/C: 0.37%
Second compound 0.1 µM, first compound 10 µM
  viability, T/C: 0.38%
[3]
  viability, T/C: 95%
[4]
  viability, T/C: 88.8%
Second compound 0.316 µM, first compound 0.316 µM
  viability, T/C: 67.6%
Second compound 0.316 µM, first compound 1 µM
  viability, T/C: 42.8%
Second compound 0.316 µM, first compound 3.16 µM
  viability, T/C: 0.3%
Second compound 0.316 µM, first compound 10 µM
  viability, T/C: 0.2%
[5]
  viability, T/C: 47.2%
[6]
  viability, T/C: 63.7%
Second compound 1 µM, first compound 0.316 µM
  viability, T/C: 20.4%
Second compound 1 µM, first compound 1 µM
  viability, T/C: 0.52%
Second compound 1 µM, first compound 3.16 µM
  viability, T/C: 0.13%
Second compound 1 µM, first compound 10 µM
  viability, T/C: 0.19%
[7]
  viability, T/C: 0.24%
[8]
  viability, T/C: 0.16%
Second compound 3.16 µM, first compound 0.316 µM
  viability, T/C: 0.25%
Second compound 3.16 µM, first compound 1 µM
  viability, T/C: 0.15%
Second compound 3.16 µM, first compound 3.16 µM
  viability, T/C: 0.21%
Second compound 3.16 µM, first compound 10 µM
  viability, T/C: 0.22%
